Data: publication PMC8279484 (Journal of Medicinal Chemistry, 2021)
Several values for one entry are separate records, joined by “and”; a condition that tells them apart may be missing. Equal entries are not always repeated.

Assays:
THP-1-MF0 macrophage = assay: Phagocytosis of fluorescent E. coli bioparticles by THP-1-MF0 macrophages; format: cell-based, human; details: for Efficacy Emax (%): 30 min pretreatment 1 fM–1 μM, figure expresses fold change; for Efficacy Emax (%) / EC50: 2 h bioparticles; for EC50: Homo sapiens, Macrophage, 30 min pretreatment, read-out: Potency EC50
Description: Mycoplasma-free THP-1 monocytes were grown in an RPMI 1640 (Gibco) medium containing 2 mM L-glutamine, 2.00 g/L sodium bicarbonate, and 2.00 g/L glucose. Then, 10% (v/v) heat-inactivated FBS (30 min at 56 °C) and Pen-Strep (100 U/mL to 100 μg/mL) were supplemented to the growth media.
Cell adherence was allowed for 1 h and 30 min at 37 °C/5% CO2. Cells were then treated for 30 min with controls and phagocytosis effectors for testing (vehicle, LXs, Rvs, or sLXms). Subsequently, media containing controls/effectors were vacuum-aspirated and replaced with a solution containing fluorescently prelabeled E. coli-derived bioparticles and cells were incubated in the dark for 2 h at 37 °C/5% CO2 to allow particle ingestion by monocytes/macrophages. After that, media containing bioparticles were vacuum-aspirated and replaced with a solution containing trypan blue and cells were incubated for 1 min at room temperature to allow quenching of unbound particles to ensure specificity of the fluorescent signal, deriving only from ingested particles (not shown). After aspiration of Trypan, the fluorescence reading was immediately performed at the following conditions: end point; reading from the bottom of the plate; Ex.480/Em.520 nm.

C57bl/6 mice = assay: Murine carrageenan-induced paw edema; format: in vivo, mouse; parameters: Paw swelling Index: Mean: unit not given here; details: for % reduction relative to carageenan-induced level / % relative to carageenan-induced level: (R)-6, (R)-17 2 μg/kg, Naproxen 50 mg/kg p.o.; for % relative to carageenan-induced level: Veh = 100; for effect on inflammatory response (paw swelling), in words / Paw swelling Index: Mean: (R)-6, (R)-17 2 μg/kg ip, Naproxen 50 mg/kg po; for Paw swelling Index: Mean: n = 3
Description: Then, 50 μL of 1% carrageenan was injected with an equivalent volume of saline injected into the contralateral paw. Inflammation was presented as the difference in paw thickness over time using gauge (POCO 2T; Kroeplin, GmbH, Surrey, U.K.). Data are presented as mean ± SEM, n = 3 mice/treatment group.

IL-6 = assay: LPS-induced IL-6 release from THP-1 Lucia monocytes (multiplex electrochemiluminescence); format: cell-based, human; details: for IC50: Homo sapiens, THP-1; for IC50 / Imax, IL-6 release: LPS 50 ng/mL, 24 h; for Imax, IL-6 release: concentration–response
Description: (§1) LXA41 and all of the tested sLXms were dissolved in ethanol and further diluted in a culture medium (final ethanol concentration 0.1%; equivalent concentrations were used as the vehicle control). Prior to in vitro experiments, THP-1-Lucia NF-κB cells were harvested and plated at 1 × 10^5 cells/well on 96-well plates and left to settle in the incubator at 37 °C, 95% humidity, and 5% CO2, in 0.1% FBS-containing media, pretreated for 30 min with increasing doses of LXA41, sLXms (from 10^–12 to 10^–6 M), or appropriate controls, followed by stimulation with 50 ng/mL LPS for 24 h. Untreated (Unt) or vehicle-treated (Veh) cells were used as negative controls; 1 pM (1R)-5, the (1R)-epimer of the benzo-mimetic, was used as a positive control for any aromatic mimetic; and, finally, we compared the observed effects to the conventional glucocorticoid dexamethasone (Dex) treatment, at 1 μM.
(§2) After 24 h of exposure to LXA41, sLXms, or vehicle, followed by LPS stimulation (50 ng/mL), as described above, THP-1-Lucia NF-κB-cell supernatants were collected and cleared by centrifugation. Concentrations of IFN-γ, IL-1β, IL-6, IL-8, IL-10, IL-12p70, and TNF-α in culture supernatants were assessed by electro-chemi-luminescent detection, using a commercially available human 96-well plate “multiplex” (several analytes in the same well) kit for tissue culture samples, according to the manufacturers’ guidelines.
(§3) The “coding” of the heat-map indicates the arbitrary criteria to assign points to each single PD component (efficacy = Imax or Emax; potency = IC50 or EC50; slope = HS) to generate a final (aggregate) relative PD score. If a single PD component was greater than the reference level (x > 1), then the single-component relative score was arbitrarily set to +1 (light green) or +2 (dark green). If a single PD component was equal to the reference level (x = 1), then the single-component relative score was arbitrarily set to 0 (gray). If a single PD component was smaller than the reference level (x < 1), then the single-component relative score was arbitrarily set to −1 (light red) or −2 (dark red). If the curve of a single PD component was best fitting to a flat line (x = 0), then the single-component relative score was arbitrarily set to −4 (purple) (Table S1).

IL-8 = assay: LPS-induced IL-8 release from THP-1 Lucia monocytes (multiplex electrochemiluminescence); format: cell-based, human; details: Dex 1 μM; 1 1 nM; (R)-6 concentration not given
Description: as §1, §2

IL-1β = assay: LPS-induced IL-1β release from THP-1 Lucia monocytes (multiplex electrochemiluminescence); format: cell-based, human; details: for IC50: Homo sapiens, THP-1
Description: as §1, §2, §3

wild-type HEK-293 cells = assay: Intracellular calcium flux in wild-type HEK-293 (specificity control); format: cell-based, human
Description: To explore the mechanism of action through which the sLXm lead compound exerts the effects seen here, its interaction with the ALX/FPR2 receptor was investigated and agonist-induced intracellular calcium transients were measured using an engineered cell line stably overexpressing the ALX/FPR2 receptor and the Gαq subunit coupled to it (Figure S6). Wild-type HEK cells were used as controls, to verify the specificity of the agonism toward ALX/FPR2, as previously reported.[36] Briefly, prior to cell plating, sterile 96-well plates (black-sided with optically clear glass flat bottoms) were PDL-coated overnight. Subsequently, 2 × 10^5 wild-type cells and overexpressed cells/well were cultured for 18 h in DMEM complete media (containing Ca^2+ and Mg^2+) to facilitate adherence prior to labeling with Fluo-4 dye. After 1 h of incubation at 37 °C with Fluo-4, cells were gently washed twice and placed in 100% Hanks’ balanced salt solution (HBSS; 37 °C) before reading the fluorescence (485/535 nm), using a spectrophotometer conjugated with an injection system (Clariostar BMG LABTECH plate reader), allowing addition to the cells of controls (1 mM ATP, a GPCR purinergic agonist, 2 nM Wp, a synthetic ALX/FPR2 agonist) or experimental treatments [10 pM, 1 nM, and 100 nM LXA41 or (R)-6].

Compound | Efficacy Emax (%) (THP-1-MF0 macrophage) | EC50 (THP-1-MF0 macrophage) | Potency Rel. Pot. (THP-1-MF0 macrophage; relative to LXA4 (1)) | Single comp. score Rel. Pot. (THP-1-MF0 macrophage; relative to LXA4 (1)) | % relative to carageenan-induced level (C57bl/6 mice; 4h) | % relative to carageenan-induced level (C57bl/6 mice; 8h) | % relative to carageenan-induced level (C57bl/6 mice; 24h) | % relative to carageenan-induced level (C57bl/6 mice; 48h) | % reduction relative to carageenan-induced level (C57bl/6 mice; 72h) | % relative to carageenan-induced level (C57bl/6 mice; 72h) | effect on inflammatory response (paw swelling), in words (C57bl/6 mice) | Paw swelling Index: Mean (C57bl/6 mice; Time 4h, 1% carrageenan) | Paw swelling Index: Mean (C57bl/6 mice; Time 8h) | Paw swelling Index: Mean (C57bl/6 mice; Time 24h) | Paw swelling Index: Mean (C57bl/6 mice; Time 48h) | Paw swelling Index: Mean (C57bl/6 mice; Time 72h) | IC50 (IL-6) | Imax, IL-6 release (IL-6) | enhancement of LPS-induced secretion of IL-8 (IL-8) | IC50 (IL-1β; LPS 50 ng/mL, 24 h) | also measured
CCCCC[C@@H](O)c1c(/C=C/[C@@H](O)[C@@H](O)CCCC(=O)OC)nc(C)n1C [Compound 5, imidazolo-LXA4] | 4.2 ± 0.7% | 10 pM | 500 | 2 (x ≥ 5) |  |  |  |  |  |  |  |  |  |  |  |  |  |  |  |  | 
CCCCC[C@@H](O)c1nc2ccccc2nc1/C=C/[C@H]1OC(C)(C)O[C@H]1CCCC(=O)OC [(R)-17, Methyl 4-((4S,5R)-5-((E)-2-(3-((R)-1-Hydroxyhexyl)quinoxalin-2-yl)vinyl)-2,2-dimethyl-1,3-dioxolan-4-yl)butanoate] |  |  |  |  | 103% | 84% | 92% | 149% | 120% | 220% | no effect | 0.07 | 0.33 | 0.80 | 0.60 | 0.22 |  |  |  |  | % reduction relative to carageenan-induced level (C57bl/6 mice; 4h): 3%; % reduction relative to carageenan-induced level (C57bl/6 mice; 24h): -8%; % reduction relative to carageenan-induced level (C57bl/6 mice; 48h): 49%
CCCCC[C@H](O)/C=C/C=C\C=C\C=C\[C@@H](O)[C@@H](O)CCCC(=O)O [Compound 1, LXA4] | 4.2 ± 0.5% and 4.2 ± 2% |  | 1 |  |  |  |  |  |  |  |  |  |  |  |  |  | 1 pM | 99 ± 1% | 2.5 fold | 1 pM | concentration of peak phagocytosis (THP-1-MF0 macrophage; back to baseline at 1 μM): 100 nM; increase of phagocytosis (THP-1-MF0 macrophage; concentration-dependent, at peak): 4 fold; Efficacy Rel. Eff. (THP-1-MF0 macrophage; relative to LXA4 (1)): 0; Ca^2+ mobilization in wild-type HEK-293 cells (wild-type HEK-293 cells): without effect
CCCCC[C@@H](O)c1nc2ccccc2nc1/C=C/[C@@H](O)[C@@H](O)CCCC(=O)OC [(R)-6, Methyl (5S,6R,E)-5,6-Dihydroxy-8-(3-((R)-1-hydroxyhexyl)quinoxalin-2-yl)oct-7-enoate] |  | 50 pM | 100 | 2 (x ≥ 5) | 116% | 63% | 72% | 53% | 10% | 110% | significantly reduced | 0.08 | 0.25 | 0.63 | 0.21 | 0.11 | 1 pM | 84 ± 2% | 2.5 fold | 1 pM | ΔΤR50: reduction of time taken to reduce the inflammatory response to 50% max (C57bl/6 mice; (R)-6 2 μg/kg ip, relative to vehicle-treated animals): 6 h; PD score, IL-6 release (IL-6; relative to LXA4 (1)): −2; rel. slope, IL-6 release (IL-6; relative to LXA4 (1)): 0.7; Imax, IL-1β release (IL-1β; concentration–response, LPS 50 ng/mL, 24 h): 73 ± 2%; PD score, IL-1β release (IL-1β; relative to LXA4 (1)): −2; rel. slope, IL-1β release (IL-1β; relative to LXA4 (1)): −0.03; Ca^2+ mobilization in wild-type HEK-293 cells (wild-type HEK-293 cells): no calcium release was induced
